“Also recorded” adds a separate entry of the source.

The subject of data set [1] is HL-60 cells. Briefly: Exposure of HL-60 cells to glucopyranosides alone (no ultrasound). The conditions noted are these: 15 minute exposure at highest concentrations used.
Experimental: Cell experiments were completed within 5 to 10 minutes of adding the glucopyranosides to the cell suspensions, and each data point represents an average ±SEM, where n=5 to 8. […] For this reason, we only studied the effects of MGP, HGP, HepGP and OGP on the ultrasound induced cytolysis of HL-60 cells.
Data set [2] concerns HL-60 cells. Description: Ultrasound-induced cytolysis of HL-60 cells, Coulter counter analysis. Format: cell-based. The note with it: HL-60 cells. The method, then: Cells: HL-60 myeloid leukemia cells (American Type Culture Collection) were grown in a suspension of RPMI 1640 medium (GIBCO, Gaithersburg, Md.) containing 10% calf serum. The population of HL-60 cells doubled every 23±1 hr (hour ±SEM) when incubated at 37° C. in a CO2 (5%) containing atmosphere. Cells were harvested, re-suspended in fresh RPMI medium and kept at 25° C. until the start of the experiment (typically less than 1 hr). […] The fraction of intact cells before and after ultrasound was determined using a Coulter multisizer (model IIe) connected to a sampling stand (model IIa). The number of intact cells was determined by counting the total number of particles under the bell shaped curve (e.g., FIG. 1a) before and following sonolysis. The cytolysis percentage was determined by subtracting the number of intact cells following sonolysis from the number of intact cells before sonolysis. This value was divided by the number of intact cells before sonolysis and multiplied by 100 to obtain the cytolysis percentage value.
The temperature of the coupling water was 25° C.
We have confirmed the validity of this technique for studying the effects of sonolysis in our ultrasound system by the trypan blue exclusion assay. The mean size of HL-60 cells was determined from the Coulter counter results prior to sonolysis and was approximately 650 μm3 (FIG. 1a) which equates to a mean cell diameter of […].
42 kHz sonolysis was conducted in a similar way but using a Branson ultrasound bath (model number 1510). […] At 42 kHz, a transducer was used to decrease the power of the bath to 50% of its original value. The temperature of the coupling water at all frequencies was 25° C.
The percentage of cytolysis of HL-60 cells was determined by measurement of the cell size distribution using a Coulter multisizer. This method correlates well with percentage cytolysis measured using the Trypan blue exclusion assay immediately following sonolysis and is explained in detail elsewhere (Miyoshi, N. et al. 2003). […] This immediate ultrasound induced cytolysis (i.e., % cytolysis) is represented in FIGS. 2, 10-12 at a concentration of zero.
42 kHz sonolysis was conducted in a similar way but using a Branson ultrasound bath (model number […]). […] At 42 kHz, a transducer was used to decrease the power of the bath to 50% of its original value. The temperature of the coupling water at all frequencies was 25° C.
The percentage of cytolysis of HL-60 cells was determined by measurement of the cell size distribution using a Coulter multisizer. This method correlates well with percentage cytolysis measured using the Trypan blue exclusion assay immediately following sonolysis and is explained in detail elsewhere (Miyoshi, N. et al. 2003). […] This immediate ultrasound induced cytolysis (i.e., % cytolysis) is represented at a concentration of zero.

Data set [3] deals with HL-60 cells. Description: Mechanical fragility test (Burrell wrist action shaker, glass beads), HL-60 cells. Format: cell-based. The method, then:
10 ml borosilicate glass beads in a 125 ml conical flask. 10 ml cell suspension in the presence and absence (control) of various glucopyranosides (HGP, HepGP, MGP, and OGP) in a cell culture medium containing 10% DPBS solution. Shaking was conducted over a period of 30 minutes. Each data point represents ±SD, where n=5.
Mechanical Fragility Test: the effect of glucopyranosides on the mechanical fragility of the cells was determined by inducing mechanical shear stress to a cell suspension. This involved placing 10 mL of HL-60 cells in suspension in 125 ml sized screw capped conical flasks containing 10 mL of borosilicate solid-glass beads (Sigma-Aldrich, mean particle diameter of 3 mm), similar to the methods described elsewhere (Carstensen, E. L. et al. 1993; Miller, M. W. et al. 2003). The samples were then shaken in a Burrell wrist action shaker (model number 75, Burrell Scientific, Pittsburgh, Pa.) at 50% power for a duration of 30 minutes. Using this method, up to eight sample solutions could be run at one time. […] In samples containing glucopyranosides, the surfactant was dissolved in 1 ml of DPBS and added to 9 ml of the cell suspension.

Data set [4] deals with HL-60 cells. Description: Reproduction assay of HL-60 cells following sonolysis. The format is cell-based. The note with it: sonolysis, 5 seconds, 10 W; varying concentrations. Here is the method: Cells were allowed to reproduce for 24 hours. Reproduction fraction ±SD (where n=6 to 8) is calculated by dividing the number of cells counted following 24 hours of reproduction by the number of cells counted at the start of incubation.
Control data points were run in triplicate with a standard deviation of less than 10%. Sonolysis points represent an average of six separate cell suspensions, with a standard deviation of less than 10%.
The reproduction ratio is the number of cells present one or two days post treatment divided by the number of cells present on the treatment day.
Reproduction Assay: for FIG. 5, a reproduction assay was conducted over a period of 10 days to determine the long term viability of cells following ultrasound treatment in the presence of either HGP or OGP at concentrations where 100% protection from cytolysis occurred. The long term viability of treated cell suspensions was compared to the long term viability of untreated control cell suspensions held under exactly the same conditions (FIG. 5). Immediately following sonolysis, a 100 μl aliquot of the 1 ml treated (or control) samples was used for Coulter counter analysis in order to confirm that 100% of the cells had survived the ultrasound treatment. Viability of the cells was determined by using a very small volume (approx. 20 μl) of suspension for trypan blue staining. The remaining ≈0.9 ml cell suspensions were diluted to 3 ml with fresh medium, centrifuged, washed with fresh medium, and finally re-suspended in fresh medium (2 ml). 100 μl of this new 2 ml of cells suspended in fresh medium was then used to determine the cell concentration. This cell concentration is defined as ‘the cell concentration at Day 0 after ultrasound treatment’ (Ci). Cell suspensions were then kept at 37° C. in a 5% CO2 incubator for a total of 10 days.
Over the 10 day period, cells had to be spun down occasionally and re-suspended in fresh medium to replenish the nutrients necessary for a healthy cell population. 100 μl aliquots of the original cell suspension were used to measure the cell concentration both before (Cfinal) and following (Cinitial) re-suspension in fresh medium. This procedure, although necessary, results in a slight underestimation in the expected number of cells on any given day, when compared to the original cell concentration, Ci. To account for this small, but significant underestimation, we calculated the actual number of cells that would have been observed had we not been periodically extracting small aliquots for the detection of cell numbers by the Coulter counter. This was done by calculating a ‘reproduction ratio’, determined by dividing Cfinal by Cinitial that was measured one or two days earlier and comparing this ratio to (Ci), to give a ‘real cell population’. It should be noted that this calculation is done simply as a matter of convenience and that the reproduction ability of the treated samples was compared to control samples that were treated in the same way over the day period, as shown in FIG. 5. Verification of this method is given by the fact that the cells of the control samples double approximately every day (FIG. 5), as expected for HL-60 cells under the conditions of incubation in the current study.

Data set [5] deals with HL-525 cells. Description: Sonolysis of HL-525 cells, % cytolysis. Format: cell-based. The conditions noted are these: 5 sec. The method, then: Conditions: 42 kHz, 50% power, 5 sec, 20° C., % cytolysis ±SD (n=6).
Conditions: 354 kHz, 15 W, 5 sec, 20° C., % cytolysis ±SD (n=6).
Conditions: 614 kHz, 20 W, 5 sec, 20° C., % cytolysis ±SD (n=6).
Conditions: 1057 kHz, 10 W, 5 sec, 20° C., % cytolysis ±SD (n=6).

For data set [6], the system named is HL-525 cells. Description: Mechanical fragility of HL-525 cells. The conditions noted are these: OGP 3 mM. The format is cell-based. The method, then: Conditions: 50% power, 30 min. shaking, 10 mL borosilicate glass beads, 10 mL cell suspension.
The next data set has as its system various cells. The note with it: approximately 7 mM to 30 mM OGP for up to 30 minutes; cited from earlier work.

Take `CCCCCCCCO[C@@H]1O[C@H](CO)[C@@H](O)[C@H](O)[C@H]1O` [OGP, octyl-β-D-Glucopyranoside]: the “effect on reproduction rate of the cells over 120 hours” value in the data set with HL-60 cells [1] is “no detrimental effect”. The “effect on ultrasound induced cytolysis (% cytolysis)” value in the data set with HL-60 cells [2] (1.057 MHz (1 MHz), 10 W, 5 s) is given as “fully protects”. Besides, in the data set with HL-60 cells [2] (1.057 MHz (1 MHz), 10 W, 5 s, air exposed), the “concentration giving complete (approximately 100%) protection from ultrasound induced cytolysis” value is recorded as 2 mM. For the same molecule, the “effect on ultrasound induced cytolysis” value with HL-60 cells [2] (42 kHz, 50% power, 5 s) is given as “very small sonosensitization; also recorded: weak sonosensitizer”; in the data set with HL-60 cells [2] (354 kHz, 15 W, 5 s) it was “weak sonosensitizer”. Further, the “cell population protected from cytolysis” value in the data set on HL-60 cells [2] (614 kHz) is recorded as 50%. The “change of protection from cytolysis as frequency is decreased” value with HL-60 cells [2] (frequency decreased from 1 MHz to 42 kHz) was “less effective; also recorded: most affected by the frequency of sonolysis”. Besides, in the data set with HL-60 cells [3] (30 min shaking, 50% power, HGP 1-10 mM, HepGP 0.1-10 mM, MGP 10-30 mM, OGP 0.3-3 mM), the “protection from mechanical induced cytolysis” value is reported as “none of the glucopyranosides tested”. The figures for the “effect on mechanical destruction of cells” value in the data set on HL-60 cells [3] (OGP 3 mM) and with HL-525 cells [6] were “no effect” and “significant effect on enhancing mechanical destruction”, respectively. Further, the “reproductive viability (reproduction fraction) over 24 hours after sonolysis” value in the data set with HL-60 cells [4] is given as “continue to reproduce at the same rate as untreated control samples”. The “protective effect for HL-525 cells compared to HL-60 cells” value in the data set with HL-525 cells [5] (1 MHz (1057 kHz), 10 W) was “different protection effects; also recorded: smaller protective effect”; in the data set on HL-525 cells [5] (614 kHz, 20 W), “much less pronounced; also recorded: smaller protective effect”. In addition, the cytolytic effects result in the data set with various cells is “no cytolytic effects observed”.
